The values that follow come from ChEMBL document CHEMBL4145512, “Design, synthesis and biological evaluation of new coumarin-dithiocarbamate hybrids as multifunctional agents for the treatment of Alzheimer's disease” (Eur J Med Chem, 2018).

The target of data set [1] is T1, Acetylcholinesterase (Homo sapiens, UniProt P22303). The data set is described as follows: Inhibition of human erythrocyte AChE using acetylthiocholine iodide as substrate preincubated for 6 mins followed by substrate addition measured up to 180 secs by Ellman's method.
The target of data set [2] is BuChE (butyrylcholinesterase) (Homo sapiens, UniProt P06276). The data set can be described thus: Inhibition of human serum BuChE at 10 uM using S-butyrylthiocholine iodide as substrate preincubated for 6 mins followed by substrate addition measured up to 180 secs by Ellman's method relative to control. As to conditions: probe S-butyrylthiocholine iodide.
In data set [3] the target is T1, Acetylcholinesterase. The data set is described as follows: Potency index, ratio of donepenzil IC50 to compound IC50 for human erythrocyte AChE.
Data set [4] concerns the target T1, Acetylcholinesterase. The data set is described as follows: […] inhibition of human erythrocyte AChE using acetylthiocholine iodide as substrate preincubated for 6 mins followed by substrate addition measured up to 180 secs by Lineweaver-Burk plot analysis.
A short description of data set [5]: Metal chelating activity assessed as compound-Fe3+ complex formation at 25 uM by UV-Vis spectrophotometry.
Data set [6] is described as follows: Metal chelating activity assessed as association constant for compound-Fe3+ complex formation by Job's plot analysis.
A short description of data set [7]: Cytotoxicity against human SH-SY5Y cells assessed as cell viability at 12.5 uM after 24 hrs by MTT assay relative to control. Format: cell-based. Conditions: read-out: Activity.
Data set [8] is described as follows: Cytotoxicity against human SH-SY5Y cells assessed as cell viability at 25 uM after 24 hrs by MTT assay relative to control. Format: cell-based. Conditions: read-out: Activity.
Data set [9] in a line: Cytotoxicity against human SH-SY5Y cells assessed as cell viability at 50 uM after 24 hrs by MTT assay relative to control. Type of data set: cell-based. Conditions: read-out: Activity.
A short description of data set [10]: Cytotoxicity against human SH-SY5Y cells assessed as cell viability at 100 uM after 24 hrs by MTT assay relative to control. Format: cell-based. Conditions: read-out: Activity.
The test system of data set [11] is Mus musculus. The data set is described as follows: Toxicity in Kunming mouse assessed as change in water consumption at 1000 mg/kg, po observed continuously for the first 4 hrs and intermittently for next 24 hrs and occasionally thereafter for 14 days. Type of data set: organism-based. As to conditions: in vivo.
Data set [12] relates to Mus musculus. The data set is described as follows: Toxicity in Kunming mouse assessed as change in food consumption at 1000 mg/kg, po observed continuously for the first 4 hrs and intermittently for next 24 hrs and occasionally thereafter for 14 days. As to conditions: in vivo. Format: organism-based.
The test system of data set [13] is Mus musculus. The data set can be described thus: Toxicity in Kunming mouse assessed as reduction in body weight at 1000 mg/kg, po observed continuously for the first 4 hrs and intermittently for next 24 hrs and occasionally thereafter for 14 days. Format: organism-based. As to conditions: in vivo.
Data set [14] relates to Mus musculus. The data set is described as follows: Toxicity in Kunming mouse assessed as death at 1000 mg/kg, po observed continuously for the first 4 hrs and intermittently for next 24 hrs and occasionally thereafter for 14 days. Format: organism-based. Conditions: in vivo.
Data set [15] deals with Mus musculus. The data set can be described thus: Cardiotoxicity in Kunming mouse at 1000 mg/kg, po measured at day 14 by microscopic analysis. Type of data set: toxicity, organism-based. Conditions: in vivo.
Data set [16] concerns Mus musculus. The data set can be described thus: Hepatotoxicity in Kunming mouse at 1000 mg/kg, po measured at day 14 by microscopic analysis. Conditions: in vivo. Type of data set: toxicity, organism-based.
Data set [17] has as its system Mus musculus. The data set is described as follows: Nephrotoxicity in Kunming mouse at 1000 mg/kg, po measured at day 14 by microscopic analysis. As to conditions: in vivo. Type of data set: toxicity, organism-based.
The test system of data set [18] is Mus musculus. The data set is described as follows: Antialzheimer activity in scopolamine induced po dosed Kunming mouse cognitive deficit model assessed as reduction in latency treated for 1 hr followed by training trial and subsequent addition of scopolamine at 30 mins post trial measured for 24 hrs interval. Type of data set: functional, organism-based.
Data set [19] deals with Mus musculus. The data set is described as follows: Antialzheimer activity in scopolamine induced po dosed Kunming mouse cognitive deficit model assessed as reduction in number of errors treated for 1 hr followed by training trial and subsequent addition of scopolamine at 30 mins post trial measured for 24 hrs interval. Format: functional, organism-based.
In data set [20] the test system is Mus musculus. The data set can be described thus: Antialzheimer activity in scopolamine induced Kunming mouse cognitive deficit model assessed as latency time at 20.6 mg/kg, po treated for 1 hr followed by training trial and subsequent addition of scopolamine at 30 mins post trial measured for 24 hrs interval. Format: functional.
In data set [21] the test system is Mus musculus. The data set can be described thus: Antialzheimer activity in scopolamine induced Kunming mouse cognitive deficit model assessed as latency time at 10.3 mg/kg, po treated for 1 hr followed by training trial and subsequent addition of scopolamine at 30 mins post trial measured for 24 hrs interval. Format: functional.
Data set [22] deals with Mus musculus. The data set can be described thus: Antialzheimer activity in scopolamine induced Kunming mouse cognitive deficit model assessed as latency time at 5.2 mg/kg, po treated for 1 hr followed by training trial and subsequent addition of scopolamine at 30 mins post trial measured for 24 hrs interval. Format: functional.
Data set [23] addresses T1, Acetylcholinesterase. The data set is described as follows: Mixed type inhibition of human erythrocyte AChE at 12.5 to 50 nM using acetylthiocholine iodide as substrate preincubated for 6 mins followed by substrate addition measured up to 180 secs by Lineweaver-Burk plot analysis.
Data set [24] in a line: Metal chelating activity assessed as compound-Cu2+ complex formation at 25 uM by UV-Vis spectrophotometry.
Data set [25] is described as follows: Metal chelating activity assessed as compound-Fe2+ complex formation at 25 uM by UV-Vis spectrophotometry.
Data set [26] is described as follows: Metal chelating activity assessed as compound-Zn2+ complex formation at 25 uM by UV-Vis spectrophotometry.
A short description of the next data set: in vitro. Conditions: PAMPA.
For data set [27], the target named is T1, Acetylcholinesterase. The data set can be described thus: Inhibition of human erythrocyte AChE at 10 uM using acetylthiocholine iodide as substrate preincubated for 6 mins followed by substrate addition measured up to 180 secs by Ellman's method relative to control.

The source made the active and inactive calls. No cut-off for these calls is given here.

T1 sequence (P22303 whole entry): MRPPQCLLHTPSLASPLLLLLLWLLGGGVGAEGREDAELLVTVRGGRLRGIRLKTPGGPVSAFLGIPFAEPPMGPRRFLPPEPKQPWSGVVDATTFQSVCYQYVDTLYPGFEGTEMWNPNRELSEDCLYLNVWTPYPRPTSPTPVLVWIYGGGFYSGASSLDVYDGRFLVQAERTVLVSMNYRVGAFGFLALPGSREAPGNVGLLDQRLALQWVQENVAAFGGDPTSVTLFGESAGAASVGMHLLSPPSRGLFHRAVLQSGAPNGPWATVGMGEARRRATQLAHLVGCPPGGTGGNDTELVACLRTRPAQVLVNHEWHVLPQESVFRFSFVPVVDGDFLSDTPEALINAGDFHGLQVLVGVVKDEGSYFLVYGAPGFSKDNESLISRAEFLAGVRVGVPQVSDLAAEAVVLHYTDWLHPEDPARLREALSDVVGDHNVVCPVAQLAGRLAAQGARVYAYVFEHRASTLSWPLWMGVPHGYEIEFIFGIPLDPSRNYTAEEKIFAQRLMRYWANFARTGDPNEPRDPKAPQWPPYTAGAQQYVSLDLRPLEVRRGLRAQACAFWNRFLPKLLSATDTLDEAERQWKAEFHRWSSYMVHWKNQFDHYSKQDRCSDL
BuChE (butyrylcholinesterase), sequence (P06276 whole entry): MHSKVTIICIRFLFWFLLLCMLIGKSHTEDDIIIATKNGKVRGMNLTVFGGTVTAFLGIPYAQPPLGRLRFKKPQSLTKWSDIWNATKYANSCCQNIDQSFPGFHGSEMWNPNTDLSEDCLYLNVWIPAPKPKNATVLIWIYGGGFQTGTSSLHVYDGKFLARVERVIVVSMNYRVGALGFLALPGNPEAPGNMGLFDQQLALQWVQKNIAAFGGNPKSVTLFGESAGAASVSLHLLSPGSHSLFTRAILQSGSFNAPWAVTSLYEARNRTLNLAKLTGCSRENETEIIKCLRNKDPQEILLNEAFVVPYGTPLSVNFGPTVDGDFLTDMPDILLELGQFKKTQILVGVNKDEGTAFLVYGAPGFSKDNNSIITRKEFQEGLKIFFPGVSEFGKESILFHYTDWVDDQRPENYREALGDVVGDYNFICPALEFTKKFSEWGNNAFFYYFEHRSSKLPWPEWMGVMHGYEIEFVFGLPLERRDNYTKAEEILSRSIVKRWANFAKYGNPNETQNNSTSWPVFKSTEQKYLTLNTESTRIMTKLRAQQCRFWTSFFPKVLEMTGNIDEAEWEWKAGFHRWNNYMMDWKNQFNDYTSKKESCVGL
Description for in vitro: Effective permeability at 25 ug/ml after 16 hrs by PAMPA

On to `Cc1cc(=O)oc2cc(OCCSC(=S)N(C)C)ccc12`, for which it took 10600 nM to reach half-maximal inhibition against Acetylcholinesterase [1] (IC50). Moreover, the inhibition at 0.05 h, 10 µM in [2] was below 5%.
The corresponding values for `Cc1cc(=O)oc2cc(OCCCSC(=S)N3CCCCC3)ccc12` are 290 nM and 31.2%.
On the same counts, the results for `Cc1cc(=O)oc2cc(OCCCCCSC(=S)N3CCCCC3)ccc12` are 210 nM and 10.1%.
`Cc1cc(=O)oc2cc(OCCCCSC(=S)N3CCCCC3)ccc12`: half-maximal inhibition against Acetylcholinesterase [1] (IC50) was put at 27 nM. This compound also displayed an inhibition at 0.05 h, 10 µM in data set [2] of 15.3%. Moreover, the Ratio IC50 on Acetylcholinesterase [3] was found to be 1.5. Also, the inhibition constant Ki at Acetylcholinesterase [4] is 37.1 nM. Also, in [5], the result was Active. Further, the Ka in data set [6] is 1.69 ×10³ /M. Also, the viability at 24 h, 12.5 µM in data set [7] turned out to be 99.2%. The viability at 24 h, 25 µM in [8] stood at 101%. In addition, the viability at 24 h, 50 µM in data set [9] turned out to be 90.1%. In addition, the viability at 24 h, 100 µM in data set [10] turned out to be 80.3%. The Activity entry with Mus musculus [11], in the data set with Mus musculus [12], in the data set with Mus musculus [13], in the data set with Mus musculus [14], in the data set on Mus musculus [15] and in the data set with Mus musculus [16] was “Non-Toxic” throughout. In addition, the Activity entry in the data set with Mus musculus [17] was “Non-Toxic”; in the data set on Mus musculus [18] it was “Dose-dependent effect”; in the data set with Mus musculus [19] it was “Dose-dependent effect”. In addition, the Time with Mus musculus [20] is reported as 192 s; in the data set on Mus musculus [21], 182 s; with Mus musculus [22] it was 151 s. The inhibition entry on Acetylcholinesterase [23] is “Active”. For the same compound, the outcome in data set [24], in [25] and in data set [26] was inactive. For the same compound, the Papp at 16 h, 25 ug/ml in “in vitro” came out at 9.21 ×10⁻⁶ cm/s.
`Cc1cc(=O)oc2cc(OCCSC(=S)N3CCC(O)CC3)ccc12` had an inhibition on Acetylcholinesterase [27] below 5%. Further, in data set [2], the inhibition at 0.05 h, 10 µM is below 5%.
In turn, `Cc1cc(=O)oc2cc(OCCSC(=S)N3CCCCC3)ccc12` displayed an IC50 on Acetylcholinesterase [1] of 470 nM. In addition, the inhibition at 0.05 h, 10 µM in data set [2] worked out at 37.2%.
The corresponding values for `CCN(CC)C(=S)SCCOc1ccc2c(C)cc(=O)oc2c1` are 1940 nM and 10.9%.
Compound `Cc1cc(=O)oc2cc(OCCSC(=S)N3CCOCC3)ccc12` had an inhibition against Acetylcholinesterase [27] of 11%. The same compound showed an inhibition at 0.05 h, 10 µM in data set [2] below 5%.
For `Cc1cc(=O)oc2cc(OCCSC(=S)N3CCN(C(C)C)CC3)ccc12`, the half-inhibitory concentration (IC50) at Acetylcholinesterase [1] is 1990 nM. This compound also came in with an inhibition at 0.05 h, 10 µM in [2] of 28.1%.
The corresponding values for `Cc1cc(=O)oc2cc(OCCCCCCSC(=S)N3CCCCC3)ccc12` are 610 nM and 6.21%.
Turning to `Cc1cc(=O)oc2cc(OCCSC(=S)N3CCN(C)CC3)ccc12`, the inhibition against Acetylcholinesterase [27] worked out at 36.8%. The compound further had an inhibition at 0.05 h, 10 µM in [2] below 5%.
`Cc1cc(=O)oc2cc(OCCSC(=S)N3CCCC3)ccc12`: the half-maximal inhibitory concentration (IC50) on Acetylcholinesterase [1] was 890 nM. In addition, in data set [2], the inhibition at 0.05 h, 10 µM is below 5%.
At Acetylcholinesterase [27], `Cc1cc(=O)oc2cc(OCCCCCCCCSC(=S)N3CCCCC3)ccc12` gave an inhibition below 5%. This compound displayed an inhibition at 0.05 h, 10 µM in [2] below 5%.
On Acetylcholinesterase [1], `Cc1cc(=O)oc2cc(OCCSC(=S)N3CCC(N4CCCCC4)CC3)ccc12` returned an IC50 of 1160 nM. In addition, the inhibition at 0.05 h, 10 µM in [2] stood at 24.3%.
On to `Cc1cc(=O)oc2cc(OCCSC(=S)N3CCN(C4CC4)CC3)ccc12`, for which the inhibition at Acetylcholinesterase [27] was found to be 18.7%. The inhibition at 0.05 h, 10 µM in [2] was below 5%.
On the same counts, the results for `Cc1cc(=O)oc2cc(OCCSC(=S)N3CCN(c4ncccn4)CC3)ccc12` are 12.3% and below 5%.
The corresponding values for `Cc1cc(=O)oc2cc(OCCSC(=S)N(CCO)CCO)ccc12` are 34.5% and below 5%.
